Measurements taken from patent US8546377B2 (AbbVie Inc., priority 2009, dated 2013).

Legend:
Assay type in all cases: cell-based
[1] = biological target: T1, 5HT2C receptors (Homo sapiens, UniProt P28335); assay: Human 5-HT2C functional assay in CHO-K1 cells (calcium flux, FLIPR); parameters: expressed in transfected cells; host or cells: CHO-K1 cells; details: CHO-K1 cells over-expressing 5HT2C, calcium flux; read-out: EC50 (μM), 5-HT2c Agonist Activity
T1 sequence (P28335 33-458): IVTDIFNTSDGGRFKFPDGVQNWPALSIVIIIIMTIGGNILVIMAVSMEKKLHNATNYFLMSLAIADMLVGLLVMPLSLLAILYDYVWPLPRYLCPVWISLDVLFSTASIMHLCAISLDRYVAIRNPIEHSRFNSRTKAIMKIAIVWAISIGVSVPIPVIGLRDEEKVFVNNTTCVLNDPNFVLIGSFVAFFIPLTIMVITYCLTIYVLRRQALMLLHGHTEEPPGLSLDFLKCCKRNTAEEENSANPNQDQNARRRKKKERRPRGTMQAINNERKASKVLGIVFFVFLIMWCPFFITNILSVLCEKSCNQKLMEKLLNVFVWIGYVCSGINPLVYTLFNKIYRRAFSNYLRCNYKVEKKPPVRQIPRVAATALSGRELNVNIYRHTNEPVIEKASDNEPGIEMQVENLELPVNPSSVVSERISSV
Outline: (§1)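 EC50 came from a 4-parameter logistic fit, with Emax expressed relative to serotonin, of intracellular Ca2+ rises read on FLIPR at 480/530 nm, 25° C, over 3 min. Compounds ran from 10 μM in six 1:10 steps (0.2% DMSO) on serum-starved CHO-K1 transfectants pre-loaded 60 min with Ca4 dye and probenecid.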

[2] = biological target: T2, 5HT2B receptors (Homo sapiens, UniProt P41595); assay: Human 5-HT2B functional assay in CHO-K1 cells (calcium flux, FLIPR); details: CHO-K1 cells over-expressing 5HT2B, calcium flux; read-out: EC50 (μM), 5-HT2B Agonist Activity
T2 construct: expressed in transfected cells; host or cells: CHO-K1 cells
T2 sequence (P41595 whole entry): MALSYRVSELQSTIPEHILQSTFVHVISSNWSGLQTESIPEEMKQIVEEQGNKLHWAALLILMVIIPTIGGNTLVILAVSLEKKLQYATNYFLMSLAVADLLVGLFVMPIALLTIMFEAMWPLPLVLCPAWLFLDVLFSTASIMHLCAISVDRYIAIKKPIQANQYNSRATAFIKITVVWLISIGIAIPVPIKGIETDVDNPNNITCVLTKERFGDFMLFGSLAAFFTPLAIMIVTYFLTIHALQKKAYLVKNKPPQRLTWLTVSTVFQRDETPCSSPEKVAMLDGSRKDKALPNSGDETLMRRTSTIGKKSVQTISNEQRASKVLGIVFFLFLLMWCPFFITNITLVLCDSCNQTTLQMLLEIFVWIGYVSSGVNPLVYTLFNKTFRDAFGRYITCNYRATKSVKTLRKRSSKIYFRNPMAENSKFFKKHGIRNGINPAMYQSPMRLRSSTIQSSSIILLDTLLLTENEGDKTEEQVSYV
Outline: as §1

[3] = biological target: T1, 5HT2C receptors; assay: Human 5-HT2C functional assay in 1321N1 cells (intracellular calcium, FLIPR); parameters: expressed in transfected cells; host or cells: 1321N1 cells; details: 1321N1 cells stably transfected, maximum calcium response; read-out: EC50 (μM), 5-HT2c Agonist Activity
Outline: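 Intracellular calcium in 1321N1 cells stably transfected with human 5-HT2C, serum-starved overnight, Fluo4 AM-loaded with 1% probenecid. Compounds at 10^−10 to 10^−5 M final, alone or with 10^−9 M serotonin; peak FLIPR response. EC50 from four-parameter logistic fit; Emax as % of serotonin effect.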

Measured: EC50

O=C1NCC2CNCCN2c2ccc(NS(=O)(=O)c3ccccc3)cc21 (stereo not drawn) [Example 48, N-(7-oxo-1,2,3,4,4a,5,6,7-octahydropyrazino[1,2-a][1,4]benzodiazepin-9-yl)benzenesulfonamide]
> 10 µM: all assays above
